Assay results taken from patent US12667735B2, “Methods for reducing pain during photodynamic therapy of actinic keratosis” (Sun Pharmaceutical Industries, Inc., priority 2019, dated 2026).
Where “and” joins values, the source holds several entries; their conditions need not be identical. Equal values may be shown once. Entries after “also recorded” stand apart in the source; their conditions may differ.

Key:
[1] = test system: actinic keratoses (AK) lesions of face and scalp; test: AK lesion clearance, bilaterally controlled randomized clinical trial of ALA blue light PDT
[2] = Erythema after PDT, recorded photographically; assay type: in vivo, human; details: 1-4 days after PDT; majority of patients
Description: (§1) Several secondary endpoints were also measured. For pain assessment, patients were asked every 5 to 10 min during illumination to report their pain on a 0 to 10 visual-analog (VAS) scale. Erythema was recorded photographically at Day 1 and on Day 4 post PDT. A side effect profile was recorded by each patient in a daily home questionnaire to document the presence or absence of eleven different signs and symptoms in the 4 days immediately following PDT (see Table 2).

[3] = Pain during blue light illumination (0 to 10 VAS); assay type: in vivo, human; details: for Pain score (0-to-10 VAS) during illumination / Pain score (0-to-10 VAS) during illumination, Mean: individual patients; for Pain score (0-to-10 VAS) during illumination, Mean: mean over time points; for Mean VAS pain score during illumination: all 23 patients, linear mixed-effect model, 0-10 scale
Description: The term “Visual Analogue Scale for Pain (referred to as VAS pain score hereafter) as used herein, is defined as follows: An 11-point numerical pain scale wherein patients report a number (from 0 to 10) that most closely reflects the level of pain they are experiencing at that particular moment; 0 corresponds to no pain and 10 corresponds to the worst pain imaginable (Breivik, HaraldScandinavian Journal of Pain 2016; 11:150-152).
as §1
The primary endpoint was AK lesion reduction. […] Statistical significance was considered with a p-value <0.05.

[4] = Daily home questionnaire of side effects, first 4 days after PDT; assay type: in vivo, human; details: Side A (test PDT)
Description: as §1

In the case of `NCC(=O)CCC(=O)O` [ALA, 5-aminolevulinic acid], the “Clinical response, Difference (A − B)” value ([1]; Face, 30 min cohort) is reported as −1.7%, the “Clinical response (% reduction in AK counts at 3 months)” value ([1]; Face, 30 min cohort, Side A (test PDT, 30 min blue light)) is reported as 55.4% and the “Clinical response (% reduction in AK counts at 3 months)” value ([1]; Face, 30 min cohort, Side B (control PDT)) is reported as 57.1%. The “Clinical response, Difference (A − B)” value ([1]; Face, 45 min cohort) was 1.1%, the “Clinical response (% reduction in AK counts at 3 months)” value ([1]; Face, 45 min cohort, Side A (test PDT, 45 min blue light)) was 59.8% and the “Clinical response (% reduction in AK counts at 3 months)” value ([1]; Face, 45 min cohort, Side B (control PDT)) was 58.6%. For the same compound, the “Clinical response, Difference (A − B)” value ([1]; Face, 60 min cohort) was −3.8%, the “Clinical response (% reduction in AK counts at 3 months)” value ([1]; Face, 60 min cohort, Side A (test PDT, 60 min blue light)) was 57.5% and the “Clinical response (% reduction in AK counts at 3 months)” value ([1]; Face, 60 min cohort, Side B (control PDT)) was 61.2%. The “Clinical response, Difference (A − B)” value ([1]; Face, all patients) was −1.4%, the “Clinical response (% reduction in AK counts at 3 months)” value ([1]; Face, all patients, Side A (test PDT, substantially no pre-illumination gap)) was 57.7% and the “Clinical response (% reduction in AK counts at 3 months)” value ([1]; Face, all patients, Side B (control PDT, 1 hr pre-illumination gap, blue light 1000 sec)) was 59.1%. For the same compound, the “Clinical response, Difference (A − B)” value ([1]; Scalp, 30 min cohort) was −1.2%, the “Clinical response (% reduction in AK counts at 3 months)” value ([1]; Scalp, 30 min cohort, Side A (test PDT, 30 min blue light)) was 44.8% and the “Clinical response (% reduction in AK counts at 3 months)” value ([1]; Scalp, 30 min cohort, Side B (control PDT)) was 46.0%. For the same compound, the “Clinical response, Difference (A − B)” value ([1]; Scalp, 45 min cohort) was 3%, the “Clinical response (% reduction in AK counts at 3 months)” value ([1]; Scalp, 45 min cohort, Side A (test PDT, 45 min blue light)) was 41.2% and the “Clinical response (% reduction in AK counts at 3 months)” value ([1]; Scalp, 45 min cohort, Side B (control PDT)) was 38.2%. For the same compound, the “Clinical response, Difference (A − B)” value ([1]; Scalp, 60 min cohort) was 3.7%, the “Clinical response (% reduction in AK counts at 3 months)” value ([1]; Scalp, 60 min cohort, Side A (test PDT, 60 min blue light)) was 45.2% and the “Clinical response (% reduction in AK counts at 3 months)” value ([1]; Scalp, 60 min cohort, Side B (control PDT)) was 41.5%. The “Clinical response, Difference (A − B)” value ([1]; Scalp, all patients) was 1.9%, the “Clinical response (% reduction in AK counts at 3 months)” value ([1]; Scalp, all patients, Side A (test PDT, substantially no pre-illumination gap)) was 43.8% and the “Clinical response (% reduction in AK counts at 3 months)” value ([1]; Scalp, all patients, Side B (control PDT, 1 hr pre-illumination gap, blue light 1000 sec)) was 41.9%. The “Clinical efficacy (lesion clearance), test PDT versus control PDT” value ([1]; face and scalp, 3 months, test of non-inferiority) was “nearly identical on both sides of the face and scalp; also recorded: statistically indistinguishable”, the “Spotty erythema (inflamed AK lesions), Side A versus Side B” value [2] was “approximately equal on Side A and Side B” and the “Pain score (0-to-10 VAS) during illumination” value ([3]; SIDE A (test PDT), 10 min during illumination, 30 min test PDT cohort) was 0 (3×) and 2 and 3 and 1. The “Pain score (0-to-10 VAS) during illumination” value ([3]; SIDE A (test PDT), 10 min during illumination, 45 min test PDT cohort) was 0 (5×) and 1 (3×), the “Pain score (0-to-10 VAS) during illumination” value ([3]; SIDE A (test PDT), 10 min during illumination, 60 min test PDT cohort) was 0 and the “Pain score (0-to-10 VAS) during illumination” value ([3]; SIDE A (test PDT), 20 min during illumination, 30 min test PDT cohort) was 0 (2×) and 2 and 5 and 1 (2×). The “Pain score (0-to-10 VAS) during illumination” value ([3]; SIDE A (test PDT), 20 min during illumination, 45 min test PDT cohort) was 0 (6×) and 1 (2×), the “Pain score (0-to-10 VAS) during illumination” value ([3]; SIDE A (test PDT), 20 min during illumination, 60 min test PDT cohort) was 0 and the “Pain score (0-to-10 VAS) during illumination” value ([3]; SIDE A (test PDT), 30 min during illumination, 30 min test PDT cohort) was 0 (2×) and 2 and 6 and 1 (2×). For the same compound, the “Pain score (0-to-10 VAS) during illumination” value ([3]; SIDE A (test PDT), 30 min during illumination, 45 min test PDT cohort) was 0 (7×) and 1, the “Pain score (0-to-10 VAS) during illumination” value ([3]; SIDE A (test PDT), 30 min during illumination, 60 min test PDT cohort) was 0 and the “Pain score (0-to-10 VAS) during illumination” value ([3]; SIDE A (test PDT), 40 min during illumination, 45 min test PDT cohort) was 0 (6×) and 1 (2×). For the same compound, the “Pain score (0-to-10 VAS) during illumination” value ([3]; SIDE A (test PDT), 40 min during illumination, 60 min test PDT cohort) was 0, the “Pain score (0-to-10 VAS) during illumination” value ([3]; SIDE A (test PDT), 50 min during illumination) was 0 and the “Pain score (0-to-10 VAS) during illumination, Mean” value ([3]; SIDE A (test PDT), 30 min test PDT cohort) was 0.0 (3×) and 2.0 and 4.7 and 0.7 and 1.0. For the same compound, the “Pain score (0-to-10 VAS) during illumination, Mean” value ([3]; SIDE A (test PDT), 45 min test PDT cohort) was 0.0 (4×) and 0.3 (2×) and 1.0 and 0.5, the “Pain score (0-to-10 VAS) during illumination, Mean” value ([3]; SIDE A (test PDT), 60 min test PDT cohort) was 0.0 (5×) and 0.8 (2×) and 0.2 and the “Pain score (0-to-10 VAS) during illumination” value ([3]; SIDE B (control PDT), 5 min during illumination, 30 min test PDT cohort) was 2 and 10 (2×) and 4 and 5 and 3. For the same compound, the “Pain score (0-to-10 VAS) during illumination” value ([3]; SIDE B (control PDT), 5 min during illumination, 45 min test PDT cohort) was 8 and 4 (3×) and 3 and 2 and 5 and 1, the “Pain score (0-to-10 VAS) during illumination” value ([3]; SIDE B (control PDT), 5 min during illumination, 60 min test PDT cohort) was 1 and the “Pain score (0-to-10 VAS) during illumination” value ([3]; SIDE B (control PDT), 10 min during illumination, 30 min test PDT cohort) was 1 and 7 and 5 and 4 and 3 (2×). For the same compound, the “Pain score (0-to-10 VAS) during illumination” value ([3]; SIDE B (control PDT), 10 min during illumination, 45 min test PDT cohort) was 3 (3×) and 2 and 4 and 5 (2×) and 1, the “Pain score (0-to-10 VAS) during illumination” value ([3]; SIDE B (control PDT), 10 min during illumination, 60 min test PDT cohort) was 1 and the “Pain score (0-to-10 VAS) during illumination” value ([3]; SIDE B (control PDT), 15 min during illumination, 30 min test PDT cohort) was 0 and 5 and 6 and 4 and 1 and 3. The “Pain score (0-to-10 VAS) during illumination” value ([3]; SIDE B (control PDT), 15 min during illumination, 45 min test PDT cohort) was 0 and 2 (3×) and 1 and 3 and 4 and 5, the “Pain score (0-to-10 VAS) during illumination” value ([3]; SIDE B (control PDT), 15 min during illumination, 60 min test PDT cohort) was 0 and the “Pain score (0-to-10 VAS) during illumination, Mean” value ([3]; SIDE B (control PDT), 30 min test PDT cohort) was 1.0 and 7.3 and 7.0 and 4.0 and 3.0 (2×) and 4.7. The “Pain score (0-to-10 VAS) during illumination, Mean” value ([3]; SIDE B (control PDT), 45 min test PDT cohort) was 3.7 (2×) and 3.0 and 2.7 and 1.7 and 4.3 and 5.0 and 1.3, the “Pain score (0-to-10 VAS) during illumination, Mean” value ([3]; SIDE B (control PDT), 60 min test PDT cohort) was 0.7 and 6.3 and 4.3 and 1.0 and 3.7 (2×) and 6.7 and 0.3 and the “Mean VAS pain score during illumination” value ([3]; Side A (test PDT)) was 0.52. For the same compound, the “Mean VAS pain score during illumination” value ([3]; Side B (control PDT)) was 3.57, the “Pain during illumination, test PDT side versus control side” value ([3]; substantially no pre-illumination gap versus 1 hour gap) was “drastically reduced” and the Bleeding ([4]; DAY 1) was 0, 0 percentage of patients. For the same compound, the Blisters ([4]; DAY 1) was 13, 13 percentage of patients, the Burning ([4]; DAY 1) was 65, 65 percentage of patients and the Crusting ([4]; DAY 1) was 9 percentage of patients. For the same compound, the Itching ([4]; DAY 1) was 43, 43 percentage of patients, the Open sores ([4]; DAY 1) was 0, 0 percentage of patients and the Peeling ([4]; DAY 1) was 4 percentage of patients. The Redness ([4]; DAY 1) was 91, 91 percentage of patients, the Stinging ([4]; DAY 1) was 65, 65 percentage of patients and the Swelling ([4]; DAY 1) was 26 percentage of patients. The “Pain Score Mean (0-10 visual-analog scale)” value ([4]; DAY 1, average of 23 patients) was 3.0, the Bleeding ([4]; DAY 2) was 17 percentage of patients and the Blisters ([4]; DAY 2) was 4 percentage of patients. For the same compound, the Burning ([4]; DAY 2) was 52, 52 percentage of patients, the Crusting ([4]; DAY 2) was 9 percentage of patients and the Itching ([4]; DAY 2) was 74, 74 percentage of patients.
